Source: PubChem BioAssay AID248 (DTP/NCI, 2004)
Inconclusive results and toxic doses are left out. Cut-off read from the data, not from the text of the source: active = T/C of 150% or more; inactive = T/C below 125%.

Test system: L1210 leukemia ip in BDF1 mice, survival T/C
Assay: NCI In Vivo Anticancer Drug Screen. Data for tumor model L1210 Leukemia (intraperitoneal) in B6D2F1 (BDF1) mice
Conditions: endpoint: mean survival time, higher = longer survival
Procedure, shortened: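 In this screen, tumor-bearing mice given compound are compared to those given vehicle, and their survival values are reported as a treated-to-control quotient.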

[1] = dose: 100.0 mg/kg/injection, schedule: Q04DX002 (ip), vehicle: saline with Tween-80
[2] = dose: 200.0 mg/kg/injection, schedule: Q04DX002 (ip), vehicle: saline with Tween-80
[3] = dose: 100.0 mg/kg/injection, schedule: Q01DX001 (ip), vehicle: saline
[4] = dose: 100.0 mg/kg/injection, schedule: Q04DX003 (ip), vehicle: saline
[5] = dose: 200.0 mg/kg/injection, schedule: Q01DX001 (ip), vehicle: saline
[6] = dose: 200.0 mg/kg/injection, schedule: Q04DX003 (ip), vehicle: saline
[7] = dose: 400.0 mg/kg/injection, schedule: Q01DX001 (ip), vehicle: saline
[8] = dose: 400.0 mg/kg/injection, schedule: Q04DX003 (ip), vehicle: saline
[9] = dose: 100.0 mg/kg/injection, schedule: Q01DX009 (ip), vehicle: saline
[10] = dose: 200.0 mg/kg/injection, schedule: Q01DX009 (ip), vehicle: saline
[11] = dose: 100.0 mg/kg/injection, schedule: Q04DX003 (ip), vehicle: saline with Tween-80
[12] = dose: 200.0 mg/kg/injection, schedule: Q04DX003 (ip), vehicle: saline with Tween-80
[13] = dose: 400.0 mg/kg/injection, schedule: Q04DX003 (ip), vehicle: saline with Tween-80
[14] = dose: 100.0 mg/kg/injection, schedule: Q01DX001 (ip), vehicle: Klucel (hydroxypropylcellulose) (HPC)
[15] = dose: 200.0 mg/kg/injection, schedule: Q01DX001 (ip), vehicle: Klucel (hydroxypropylcellulose) (HPC)
[16] = dose: 400.0 mg/kg/injection, schedule: Q01DX001 (ip), vehicle: Klucel (hydroxypropylcellulose) (HPC)
[17] = dose: 100.0 mg/kg/injection, schedule: Q01DX009 (ip), vehicle: Klucel (hydroxypropylcellulose) (HPC)
[18] = dose: 200.0 mg/kg/injection, schedule: Q01DX009 (ip), vehicle: Klucel (hydroxypropylcellulose) (HPC)
[19] = dose: 400.0 mg/kg/injection, schedule: Q01DX009 (ip), vehicle: Klucel (hydroxypropylcellulose) (HPC)

Measured: T/C

CC12CCC3c4ccc(Oc5ccccc5[N+](=O)[O-])cc4CCC3C1CCC2=O (configuration not stated)
inactive: dose: 100.0 mg/kg/injection, schedule: Q01DX001 (sc), vehicle: steriod suspending solution 100 % of control | dose: 200.0 mg/kg/injection, schedule: Q01DX001 (sc), vehicle: steriod suspending solution 103 % of control | dose: 400.0 mg/kg/injection, schedule: Q01DX001 (sc), vehicle: steriod suspending solution 103 % of control

c1ccc2c(c1)c1c(n2N2CCCCC2)CCC1
inactive: [1] 90 % of control | [2] 95 % of control

O=C(O)C1CCC=CC1c1ccccc1 (configuration not stated)
inactive: dose: 100.0 mg/kg/injection, schedule: Q01DX005 (ip), vehicle: saline with Tween-80 101 % of control | dose: 100.0 mg/kg/injection, schedule: Q01DX009 (ip), vehicle: saline with Tween-80 96 % of control | dose: 200.0 mg/kg/injection, schedule: Q01DX005 (ip), vehicle: saline with Tween-80 101 % of control | dose: 200.0 mg/kg/injection, schedule: Q01DX009 (ip), vehicle: saline with Tween-80 110 % of control | dose: 400.0 mg/kg/injection, schedule: Q01DX005 (ip), vehicle: saline with Tween-80 116 % of control | dose: 400.0 mg/kg/injection, schedule: Q01DX009 (ip), vehicle: saline with Tween-80 110 % of control

O=C(CCl)N1C(=O)CC(c2ccccc2)C1=O (configuration not stated)
inactive: [1] 101 % of control | [2] 97 % of control | dose: 400.0 mg/kg/injection, schedule: Q04DX002 (ip), vehicle: saline with Tween-80 95 % of control

CCNC(=O)NC1C(O)OC(CO)C(O)C1O (configuration not stated)
inactive: [3] 96 % of control | [4] 99 % of control | [5] 103 % of control | [6] 99 % of control | [7] 102 % of control | [8] 95 % of control

CC(=C(C#N)C#N)c1ccccc1
inactive: dose: 12.5 mg/kg/injection, schedule: Q04DX003 (ip), vehicle: saline with Tween-80 95 % of control | dose: 25.0 mg/kg/injection, schedule: Q04DX003 (ip), vehicle: saline with Tween-80 94 % of control | dose: 50.0 mg/kg/injection, schedule: Q04DX003 (ip), vehicle: saline with Tween-80 89 % of control

CCOC(=O)C(O)C1(Cl)CCC(C(C)(C)C)CC1 (configuration not stated)
inactive: dose: 100.0 mg/kg/injection, schedule: Q04DX002 (ip), vehicle: saline 103 % of control | dose: 200.0 mg/kg/injection, schedule: Q04DX002 (ip), vehicle: saline 106 % of control | dose: 400.0 mg/kg/injection, schedule: Q04DX002 (ip), vehicle: saline 106 % of control

N#CC1CS(=O)(=O)C1
inactive: [9] 108 % of control | [4] 106 % of control | [10] 103 % of control | [6] 101 % of control | [8] 102 % of control

O=C(C[n+]1cccc(CO)c1)c1ccc(-c2ccc(C(=O)C[n+]3cccc(CO)c3)cc2)cc1
inactive: dose: 0.05 mg/kg/injection, schedule: Q04DX003 (ip), vehicle: saline 105 % of control | dose: 0.1 mg/kg/injection, schedule: Q04DX003 (ip), vehicle: saline 100 % of control | dose: 0.2 mg/kg/injection, schedule: Q04DX003 (ip), vehicle: saline 108 % of control

O=C1OC2C(I)C3CCC2C1C3 (configuration not stated)
inactive: [9] 98 % of control | [4] 102 % of control | [10] 102 % of control | [6] 105 % of control | dose: 400.0 mg/kg/injection, schedule: Q01DX009 (ip), vehicle: saline 98 % of control | [8] 98 % of control

CCCCCCCCC(=O)NCc1ccc(O)c(OC)c1
inactive: dose: 1.56 mg/kg/injection, schedule: Q01DX009 (ip), vehicle: saline 93 % of control | dose: 3.12 mg/kg/injection, schedule: Q01DX009 (ip), vehicle: saline 101 % of control | dose: 6.25 mg/kg/injection, schedule: Q01DX009 (ip), vehicle: saline 90 % of control

COS(=O)(=O)CCCCCC[N+](C)(C)C
inactive: dose: 50.0 mg/kg/injection, schedule: Q01DX001 (ip), vehicle: saline 93 % of control | [3] 102 % of control | [5] 98 % of control

O=C(CCCl)Nc1cccc2c1C(=O)c1c(c(O)c3ccccc3c1O)C2=O
inactive: [11] 90 % of control | [12] 92 % of control | [13] 91 % of control

COC(=O)C1(C(=O)OC)C2CCCCC21 (configuration not stated)
inactive: [14] 90 % of control | dose: 100.0 mg/kg/injection, schedule: Q04DX003 (ip), vehicle: Klucel (hydroxypropylcellulose) (HPC) 96 % of control | [15] 103 % of control | dose: 200.0 mg/kg/injection, schedule: Q04DX003 (ip), vehicle: Klucel (hydroxypropylcellulose) (HPC) 104 % of control | [16] 98 % of control | dose: 400.0 mg/kg/injection, schedule: Q04DX003 (ip), vehicle: Klucel (hydroxypropylcellulose) (HPC) 98 % of control

CC(=O)NC1C(CO)OC(n2cnc3c(N)nc(Cl)nc32)C1O (configuration not stated)
inactive: [14] 94 % of control | dose: 100.0 mg/kg/injection, schedule: Q01DX001 (ip), vehicle: saline with Tween-80 105 % of control | [15] 96 % of control | dose: 200.0 mg/kg/injection, schedule: Q01DX001 (ip), vehicle: saline with Tween-80 107 % of control | [16] 91 % of control | dose: 400.0 mg/kg/injection, schedule: Q01DX001 (ip), vehicle: saline with Tween-80 100 % of control

CC(C)COC(=O)Cc1cccc2ccccc12
inactive: dose: 222.0 mg/kg/injection, schedule: Q01DX Z (ip), vehicle: saline 96 % of control | dose: 333.0 mg/kg/injection, schedule: Q01DX Z (ip), vehicle: saline 96 % of control | dose: 500.0 mg/kg/injection, schedule: Q01DX Z (ip), vehicle: saline 94 % of control

O=c1c2cc([N+](=O)[O-])ccc2[nH]c2c1ccc1ccccc12
inactive: [4] 92 % of control | [6] 92 % of control | [8] 90 % of control

CC(=O)/C=C/C1C(C)=CCCC1(C)C (configuration not stated)
inactive: [11] 97 % of control | [12] 92 % of control | [13] 100 % of control

CC(=O)N1CC(n2nnc3c(N)ncnc32)CC1CO (configuration not stated)
inactive: dose: 12.5 mg/kg/injection, schedule: Q04DX002 (ip), vehicle: saline with Tween-80 98 % of control | dose: 25.0 mg/kg/injection, schedule: Q04DX002 (ip), vehicle: saline with Tween-80 102 % of control | dose: 50.0 mg/kg/injection, schedule: Q04DX002 (ip), vehicle: saline with Tween-80 94 % of control

O=C(Nc1ccc(F)cc1)OCCOc1ccc(Cl)cc1Cl
inactive: [17] 105 % of control | [18] 110 % of control | [19] 109 % of control

O=C(CCl)NCc1ccc(Cl)c(C(=O)O)c1
inactive: [3] 103 % of control | [4] 98 % of control | [5] 99 % of control | [6] 88 % of control | [7] 89 % of control | [8] 96 % of control

NC(N)=NC1CCCCC1
inactive: [4] 102 % of control | [6] 112 % of control

O=C(COCC(=O)N/N=C/C=C/c1ccccc1)N/N=C/C=C/c1ccccc1
inactive: [17] 96 % of control | [18] 104 % of control | [19] 95 % of control
